According to patent US6255092A, “Stereospecific alcohol dehydrogenase isolated from Candida parapsilosis, amino acid and DNA sequences therefor, and method of preparation thereof” (Daicel Chemical Industries Ltd., priority 1993, dated 2001):
Where two headings read alike, the source gives them in different places.

How the values were obtained:
[1] = biological target: T1, secondary alcohol dehydrogenase (Lodderomyces parapsilosis, UniProt O42703)
Description: (§1) One unit of enzyme was defined as the amount of enzyme necessary to catalyze the formation of 1 μmol of NADH per min under the assay conditions.

[2] = biological target: T1, secondary alcohol dehydrogenase; assay: biochemical; format: biochemical, Candida parapsilosis; parameters: full length 336 aa, about 40 kDa; gene also expressed in E. coli JM109 (pKK-CPA1); conditions: for remaining activity at 1000 µM: read-out: Relative activity (remaining activity)
Description: After said enzyme was incubated at 30° C. for 30 min in the presence of various reagents, the remaining activity was assayed and expressed as the percentage relative to that (100%) of the untreated enzyme (Table 5).

[3] = biological target: T1, secondary alcohol dehydrogenase; assay: Substrate specificity: reducing activity with ketones/aldehydes (NADH); format: biochemical, Candida parapsilosis; parameters: full length 336 aa, about 40 kDa; gene also expressed in E. coli JM109 (pKK-CPA1); conditions: reduction, coenzyme NADH, relative to 2-butanone reducing activity (100%)
[4] = relative to that for ethanol; cited from earlier work
[5] = pH optimum of (S)-2-butanol oxidizing activity; format: biochemical, Candida parapsilosis; conditions: KPB, Tris-HCl and Briton-Robinson buffer
Description: as §1

[6] = pH optimum of 2-butanone reducing activity; format: biochemical, Candida parapsilosis; conditions: NADH, KPB, Tris-HCl and Briton-Robinson buffer
[7] = Optimum reaction temperature, standard assay; format: biochemical, Candida parapsilosis
Description: The secondary alcohol dehydrogenase activity was assayed under the standard assay conditions at different temperature as shown in Table 2.

[8] = Thermostability of the purified enzyme; format: physicochemical, Candida parapsilosis; conditions: 40° C. for 10 min, pH 8.0, relative to the original activity
Description: After the purified enzyme was incubated at pH 8.0 and 30° C.-70° C. for 10 min, the remaining activity was assayed. Even after the incubation at 40° C. for 10 min, more than 90% of the original enzyme activity was retained (FIG. 5).

[9] = Specific activity of the purified enzyme, standard assay; format: biochemical, Candida parapsilosis; conditions: purified enzyme after Mono-Q, (S)-2-butanol, pH 9.0, 30° C.
Description: The wet cells thus obtained were disrupted in a high pressure cell disintegrator, and centrifuged to remove cell debris. To the cell-free extract protamine sulfate was added to remove nucleic acids and microsomes. After centrifugation, the supernatant was brought to 70% saturation with ammonium sulfate, and the precipitate was collected, subjected to anion exchange chromatography on Q-Sepharose FF, eluted with a density gradient of NaCl, and the peak fraction containing said secondary alcohol dehydrogenase activity was collected. The active fraction was then subjected to hydrophobic chromatography on a column of phenyl-Sepharose equilibrated with a buffer containing 1.62 M ammonium sulfate, and the active fraction was eluted by reducing the ammonium sulfate concentration to 0 M (the enzyme activity was assayed as described hereinbefore). After the active fraction was added to a Red Sepharose affinity column, the unretained fraction was subjected to a Superdex 200 gel filtration. The recovered active fraction was subjected to anion exchange chromatography on a Mono Q column and eluted with a density gradient of NaCl. Only active fractions which gave a single band in the purity test on SDS-PAGE were collected.

[10] = oxidation, substrate 5 mM, coenzyme NAD+, relative to (S)-2-butanol oxidizing activity (100%)
[11] = inhibitor 1 mM, 30° C. for 30 min, relative to untreated enzyme (100%)

Molecule: CCCCCCC(C)O (racemic) [(RS)-2-Octanol]
- Relative activity [1, 10]: 39.2%

Molecule: O[C@H](CS)[C@H](O)CS (racemic) [Dithiothreitol]
- Inhibition of the enzyme activity (in words) [2]: markedly inhibited
- remaining activity at 1000 µM [2, 11]: 0%

Molecule: CCC(C)=O [2-Butanone]
- Relative activity ([3]; substrate 100 mM): 100.0%

Molecule: CC(=O)C(C)(C)O [3-Hydroxy-3-methyl-2-butanone]
- Relative activity ([3]; substrate 100 mM): 18.5%

Molecule: CC(=O)CCO [4-Hydroxy-2-butanone]
- Relative activity ([3]; substrate 100 mM): 41.2%

Molecule: CC(C)CC(C)O (stereo not shown) [4-Methyl-2-pentanol]
- Relative activity ([1]; oxidation, substrate 20 mM, coenzyme NAD+, relative to (S)-2-butanol oxidizing activity (100%)): 40.8%

Molecule: C[C@@H](O)c1ccccc1 [(R)-1-Phenylethanol]
- Relative activity [1]: 1.1

Molecule: CCCCCC[C@@H](C)O [(R)-2-Octanol]
- Relative activity [1, 10]: 0.0%

Molecule: C[C@H](O)c1ccccc1 [(S)-1-Phenylethanol]
- Relative activity [1]: 89.3

Molecule: CCCCCC[C@H](C)O [(S)-2-Octanol]
- Relative activity [1, 10]: 67.7%

Molecule: CC(C)=O [Acetone]
- Relative activity ([3]; substrate 100 mM): 123.4%

Molecule: CC(=O)c1ccccc1 [Acetophenone]
- Relative activity ([3]; substrate 20 mM): 121.8%

Molecule: O=S(=O)([O-])[O-].[Cu+2] [CuSO4]
- Relative activity (remaining activity) [2, 11]: 25.5%

Molecule: OC1CCCCC1 [Cyclohexanol]
- Relative activity [1]: 52.8

Molecule: O=C(O)CN(CCN(CC(=O)O)CC(=O)O)CC(=O)O [Ethylenediaminetetraacetic acid, Ethylenediamine-tetraacetic acid]
- Inhibition of the enzyme activity (in words) [2]: not
- remaining activity at 1000 µM [2]: 102%

Molecule: [Cl][Hg][Cl] [HgCl2, mercuric chloride]
- Inhibition of the enzyme activity (in words) [2]: markedly inhibited
- Relative activity (remaining activity) [2, 11]: 0.0%

Molecule: CO [Methanol]
- Relative activity [1]: 0.2

Molecule: CCN1C(=O)C=CC1=O [N-Ethylmaleimide]
- Inhibition of the enzyme activity (in words) [2]: inhibited
- remaining activity at 1000 µM [2, 11]: 21.2%

Molecule: NO [NH2 OH]
- Relative activity (remaining activity) ([2]; inhibitor 0.01 mM, 30° C. for 30 min, relative to untreated enzyme (100%)): 92.7%

Molecule: [N-]=[N+]=[N-].[Na+] [NaN3]
- Relative activity (remaining activity) ([2]; inhibitor 0.02(%), 30° C. for 30 min, relative to untreated enzyme (100%)): 89.9%

Molecule: O=S(=O)(F)Cc1ccccc1 [Phenylmethanesulfonyl fluoride, Phenylmethane-sulfonyl fluoride]
- Relative activity (remaining activity) [2, 11]: 69.0%

Molecule: CCC=O [Propionaldehyde]
- Relative activity ([3]; substrate 100 mM): 76.2%

Molecule: [Cl-].[Cl-].[Zn+2] [ZnCl2, zinc chloride]
- Inhibition of the enzyme activity (in words) [2]: markedly inhibited
- Relative activity (remaining activity) [2, 11]: 16.4%

Molecule: OCCS [b-Mercaptoethanol, 2-mercaptoethanol]
- Inhibition of the enzyme activity (in words) [2]: markedly inhibited
- remaining activity at 1000 µM [2, 11]: 3.2%

Molecule: NC(=O)CI [iodoacetamide]
- Inhibition of the enzyme activity (in words) [2]: markedly inhibited

Molecule: c1cnc2c(c1)ccc1cccnc12 [o-Phenanthroline]
- Inhibition of the enzyme activity (in words) [2]: inhibited
- remaining activity at 1000 µM [2, 11]: 19%

Molecule: O=C(O)c1cc[c]([Hg][Cl])cc1 [p-Chloromercuribenzoic acid, p-Chloromercuri-benzoic acid]
- Inhibition of the enzyme activity (in words) [2]: markedly inhibited
- Relative activity (remaining activity) ([2]; inhibitor 0.05 mM, 30° C. for 30 min, relative to untreated enzyme (100%)): 0.0%
- Inhibition of the enzyme activity (in words) ([2]; listed as p-mercuribenzoic acid): inhibited

B1: SADH-1: primary alcohol dehydrogenase derived from baker's yeast (Saccharomyces cerevisiae) (protein, UniProt P00330 2-348, looked up)
Alcohol dehydrogenase 1: SIPETQKGVIFYESHGKLEYKDIPVPKPKANELLINVKYSGVCHTDLHAWHGDWPLPVKLPLVGGHEGAGVVVGMGENVKGWKIGDYAGIKWLNGSCMACEYCELGNESNCPHADLSGYTHDGSFQQYATADAVQAAHIPQGTDLAQVAPILCAGITVYKALKSANLMAGHWVAISGAAGGLGSLAVQYAKAMGYRVLGIDGGEGKEELFRSIGGEVFIDFTKEKDIVGAVLKATDGGAHGVINVSVSEAAIEASTRYVRANGTTVLVGMPAGAKCCSDVFNQVVKSISIVGSYVGNRADTREALDFFARGLVKSPIKVVGLSTLPEIYEKMEKGQIVGRYVVDTSK
- Relative activity for 2-butanol [4]: about 1%

B2: secondary alcohol dehydrogenase: NAD+-dependent stereospecific secondary alcohol dehydrogenase purified from Candida parapsilosis IFO 1396, SEQ. ID NO: 2 (protein)
chain: MSIPSSQYGFVFNKQSGLNLRNDLPVHKPKAGQLLLKVDAVGLCHSDLHVIYEGLDCGDNYVMGHEIAGTVAAVGDDVINYKVGDRVACVGPNGCGGCKYCRGAIDNVCKNAFGDWFGLGYDGGYQQYLLVTRPRNLSRIPDNVSADVAAASTDAVLTPYHAIKMAQVSPTSNILLIGAGGLGGNAIQVAKAFGAKVTVLDKKKEARDQAKKLGADAVYETLPESISPGSFSACFDFVSVQATFDVCQKYVEPKGVIMPVGLGAPNLSFNLGDLALREIRILGSFWGTTNDLDDVLKLVSEGKVKPVVRSAKLKELPEYIEKLRNNAYEGRVVFNP
- pH optimum for the oxidation of (S)-2-butanol [5]: 8.5-9.5
- pH optimum for the reduction of 2-butanone [6]: 5.5-6.5
- Temperature range of high activity [7]: 25-55 °C
- Relative activity ([7]; 30 °C): 55%
- Relative activity ([7]; 37 °C): 65%
- Relative activity ([7]; 45 °C): 92%
- Relative activity ([7]; 50 °C): 100%
- Relative activity ([7]; 55 °C): 88%
- Relative activity ([7]; 60 °C): 0%
- Optimum reaction temperature ([7]; standard assay conditions): 50 °C
- Remaining activity after heat treatment [8]: more than 90%
- Specific activity [9]: 1370 units/mg
